We go through six compounds from ChEMBL document CHEMBL1148195, “Chemical investigation of predator-deterred macroalgae from the Antarctic peninsula” (2004).

Calls of active or inactive are those of the source. No cut-off for these calls is given here.

Common to all, as to type: functional
The subject of assay [1] is Candida albicans. The assay can be described thus: Antimicrobial activity against Candida albicans 54 at 200 ug/spot after 18 hrs by agar diffusion method. On the technique in general: In agar diffusion tests the substance spreads into inoculated agar from a disc or well.
The subject of assay [2] is Enterococcus faecium. The assay can be described thus: Antibacterial activity against vancomycin-resistant Enterococcus faecium 379 at 200 ug/spot after 18 hrs by […]. A general note: In agar dilution, organisms are placed on agar that contains the substance at set levels.
The subject of assay [3] is Staphylococcus aureus. The assay can be described thus: Antibacterial activity against methicillin-resistant Staphylococcus aureus 310 at 200 ug/spot after 18 hrs by agar diffusion method.
The test system of assay [4] is Escherichia coli. Description: Antibacterial activity against permeability mutant Escherichia coli 389 at 200 ug/spot after 18 hrs by agar diffusion method.
Assay [5] concerns Staphylococcus aureus. The assay can be described thus: Antibacterial activity against methicillin-sensitive Staphylococcus aureus 375 at 200 ug/spot after 18 hrs by agar diffusion method.

In the case of `C[C@@](Cl)(/C=C/Br)[C@H]1CO[C@@](C)(O)[C@@H](Br)C1`, the “inhibition zone (IZ)” value in assay [1] is recorded as 8 mm.
For the compound `CCC[C@@H](OC(C)=O)C1=C(Br)/C(=C\Br)OC1=O` [ACETOXYFIMBROLIDE], the “inhibition zone (IZ)” value amounted to 16 mm in assay [2]; 25 mm in assay [3]; 9 mm in assay [4]; 17 mm in assay [1]; 24 mm in assay [5].
As to `CC(C)(Br)[C@@H](Cl)C[C@H](Br)[C@](C)(Cl)/C=C/Br` [ANVERENE], in assay [2], the “inhibition zone (IZ)” value was 8 mm. The outcome in assay [3], in assay [4], in assay [1] and in assay [5] was inactive.
As to `CCCCC1=C(Br)/C(=C\Br)OC1=O` [FIMBROLIDE], the outcome in assay [2], in assay [4] and in assay [1] was inactive. The “inhibition zone (IZ)” value in assay [3] and in assay [5] was 7 mm each time.
For the compound `CCC[C@@H](O)C1=C(Br)/C(=C\Br)OC1=O` [HYDROXYFIMBROLIDE], the “inhibition zone (IZ)” value in assay [2] turned out to be 14 mm; in assay [3] it was 23 mm; in assay [4], 9 mm; in assay [1], 25 mm; in assay [5] it was 23 mm.
In the case of `CC1=CC(=O)C=C(C/C=C(\C)CC/C=C(\C)CC/C=C(\C)CC/C=C(\C)C(=O)O)C1=O` [MENZOQUINONE], the results for the “inhibition zone (IZ)” value in assay [2], in assay [3] and in assay [5] were 7 mm, 8 mm and 6 mm, respectively.
